Reference: paper PMC4872532, “Development of antithrombotic nanoconjugate blocking integrin α2β1-collagen interactions” (Scientific Reports, 2016)
Where no end group is shown, it is not given here.

Tests used:
[1] = Particle size and zeta potential by dynamic light scattering; type: physicochemical; conditions: Zetasizer Nano, deionized water, 25 °C, mean ± S.D., N = 3
Method: Particle size and zeta potential were measured by dynamic light scattering (DLS) in deionized water at room temperature, as shown in Table 1.
The samples were submitted to size or zeta analysis by injecting them into disposable DLS or zeta potential cuvettes at 25 °C. The results were reported as the average of three repeated experiments.

[2] = tested on: platelet adhesion on collagen peptide; experiment: Platelet solid-phase adhesion assay on collagen peptide; type: cell-based, sheep; conditions: for IC50, concentration required to inhibit half of the specific binding (platelet adhesion): collagen peptide coated 100 μg/mL, inhibitor in normal saline 1 h at 18 °C, washed, platelets 1 h at 18 °C, p-nitrophenyl phosphate read-out 405 nm, L-PGMA NPs concentration = conjugated LWWNSYY
Description: (§1) Glycidyl methacrylate (97%) and ethylene glycol dimethacrylate (97%) were purchased from Sigma-Aldrich (St. Louis, MO, USA). Dimethy sulfoxide (DMSO), epichlorohydrin (ECH), EG and sodium borohydride (NaBH4) were of analytical grade from Guangfu Fine Chemical Research Institute (Tianjin, China). The triple helix collagen peptide, with an amino acid sequence of (GPO)2GFOGER(GPO)3, was purchased as HPLC-purified powder with a purity of >95% from ChinaPeptides (Shanghai, China). LWWNSYY was obtained as lyophilized powder with a purity of >95% from GL Biochem (Shanghai, China). Sheep blood containing 0.4% sodium citrate (w/v) was purchased from Ruite Bio-tec (Guangzhou, China). Bovine serum albumin (BSA) was purchased from Sigma (St. Louis, MO, USA). ρ-nitrophenylphosphate (PNPP) was purchased from Aladdin Industrial Corporation (Shanghai, China) with a purity of 98%. Sodium chloride (NaCl), tris (hydroxymethyl) aminomethane (Tris) and other reagents were of analytical grade from Sangon Biotech Co., Ltd. (Shanghai, China).
Adhesion was determined colorimetrically, following the procedure reported previously. Anticoagulated sheep blood was obtained by the addition of 0.4% sodium citrate (w/v), allowing about five days for the transportation before the tests. Platelet-rich plasma (PRP) was obtained as the supernatant after centrifugation of the anticoagulated sheep blood at 180 g for 20 min at 4 °C. Then platelet was obtained as the precipitate after centrifugation of PRP at 1000 g for 10 min at 4 °C[12], which was suspended in adhesion buffer (TBS containing 0.1% BSA) to prepare platelet suspension buffer for further use. Microtiter HB 96-well plates (Costar, Corning Inc., USA) were coated with 100 μL collagen peptide (100 μg/mL) dissolved in 0.01 M acetic acid for 4 h at 18 °C. Reagents without adhesion were discarded, and the wells were washed by 200 μL TBS (50 mM Tris-HCl, 140 mM NaCl, 2 mM Mg^2+, pH 7.4) for three times. Then, wells were blocked for 1 h by 100 μL of TBS containing 50 mg/mL BSA. After three washes by 200 μL TBS, 100 μL LWWNSYY or L-PGMA NPs with different concentrations dissolved in normal saline was applied to each well and incubated at 18 °C for 1 h. 100 μL platelet suspension buffer were added to each well after three washes to remove non-reacted inhibitors, and plates were incubated at 18 °C for 1 h. Unbound platelets were then discarded, and the wells were washed as above. 150 μL lysis buffer (0.1 M citrate, pH 5.4, containing 0.1% Triton X-100 and 5 mM p-nitrophenyl phosphate) was added to each well. Reaction was terminated after 1 h by addition of 100 μL NaOH (3 M), and plates were read at 405 nm using an automated plate reader (ELX800, BioTek Instruments Inc., USA). […] The effect of binding to BSA or B-PGMA NPs was eliminated. According to the standard above, the absorption value was transformed to inhibition ratio. Data was presented as the mean ± S.D. from three independent experiments (n = 8). Dose-response inhibition ratio curves were fitted using the Hill equation[48][49]. The concentration of LWWNSYY or L-PGMA NPs required to inhibit half of the specific binding, IC50, and the maximum inhibition ratio, IRmax, were calculated based on the Hill equation[50].

ICR mice = experiment: Toxicity assay of inhibitors; type: in vivo; conditions: for toxicity: i.v. 2.5 mg/kg, N = 4, 7 days
Method: S4. Toxicity Assay of Inhibitors
Eight specific pathogen free (SPF) ICR mice weighing about 18-22 g (HFK Bioscience Co., Ltd., Beijing, China) were randomly divided into two groups (N=4, half males and half females), and then treated with LWWNSYY or L-PGMA NPs (i.v., 2.5mg/10ml/kg) to investigate their toxicity, respectively. After treatment, animals were maintained under standard conditions with food ad libitum and maintained in a 12 h/12 h light/dark cycle at room temperature. Behavior, mortality and any other clinical signs of mice were observed […]
1.Bullock, A. N. et al., Thermodynamic stability of wild-type and mutant p53 core domain. P. Natl Acad. Sci.

[3] = molecular target: Triple Helical Collagen Peptide (GPO)2GFOGER(GPO)3; experiment: Isothermal titration calorimetry, binding to triple helical collagen peptide; conditions: L-PGMA in deionized water containing normal saline concentration, 600 μM collagen peptide, 10 °C, mean ± S.D., N = 3
Method: ITC experiments were performed to investigate the thermodynamic binding characteristics of L-PGMA NPs on the triple helical collagen peptide (Fig. 4A). The triple helix collagen peptide containing GFOGER recognition sequence was titrated with L-PGMA NPs. The data of LWWNSYY was also examined and used as control.
as §1
The binding between collagen peptide and LWWNSYY in normal saline or normal saline containing 25% (v/v) EG was investigated following the procedure reported previously, the concentration of collagen peptide in the cell was 80 μM, while the concentration of LWWNSYY was 1.0 mM. To investigate the binding between collagen peptide and L-PGMA NPs in normal saline, the concentration of L-PGMA NPs in the cell was 48 μM (in full text, the concentration of L-PGMA NPs represents the concentration of conjugated LWWNSYY on the surface of L-PGMA NPs in solution), while the concentration of collagen peptide was 600 μM. All samples were treated by 20 min degassing prior to the examination. Isothermal calorimetric titrations were performed in a titration mode with a 1.425 mL sample cell, using a VP isothermal titration calorimeter (MicroCal, Northampton, MA). 8 μL LWWNSYY was injected over 16 s for 30 times, with a spacing time of 350 s between injections. The reference power was set to 20 μcal/s, and the stirring speed was 307 rpm. To reserve the active triple helical form of collagen peptide, the temperature in ITC cell was kept at 10 °C. […] Titration data were analyzed using MicroCal Origin (Version 7.0). […] Consequently, the integrated enthalpy was calculated from the single-site binding model. Thermodynamics parameters, including Kd, ΔH, TΔS, and Gibbs free energy (ΔG) were calculated.

[4] = tested on: carotid artery thrombus formation; experiment: FeCl3-induced carotid artery thrombus formation; type: in vivo, Wistar rats; conditions: 0.625 mg/kg i.v., N = 5
Description: Adult SPF male Wistar rats weighing 180–220 g were purchased from HFK Bioscience Co. (Beijing, China), and housed in a standard temperature-, light-, and humidity-controlled animal enclosures at the institute of Radiation Medicine in Chinese Academy of Medical Sciences. All rats had free access to food and water, and were acclimated for at least 1 week. The Institute of Radiation Medicine Animal Care and Use Committee approved the protocols for the care and use of animals, and all animal procedures were carried out in accordance with the approved guidelines.
FeCl3-induced arterial injury in rats was performed following the procedure reported previously. Rats were randomly divided into 4 groups (N = 5) and fasted for 12 h before the surgery. They were anesthetized with 10% chloral hydrate (3 mL/kg, i.p.) and placed on a 37 °C warming pad throughout the experiment. The right carotid artery was exposed by blunt dissection with minimal blood loss, and a Doppler flow probe (Transonic T400, USA) was attached to the artery to monitor blood flow continuously. […] After 20 min, the filter paper was removed, and the vessel was washed with normal saline. The blood flow was monitored continuously for 30 min after injury. At the end of 30-minute period, thrombus size was evaluated by the weight. Immediately after the experiment, the rats were sacrificed by cervical dislocation while still under deep anesthesia. Data are expressed as mean ± S.D. Data were analyzed by one-way ANOVA, followed by Duncan’s post hoc test. Statistical significance was set at p < 0.05.

[5] = UV-VIS quantification of immobilized LWWNSYY; type: physicochemical; conditions: UV-VIS absorption peak at 280 nm; B-PGMA NPs background subtracted
Description: The chemical conjugation of LWWNSYY onto the surface of PGMA-ECH NPs was examined using fourier transform infrared spectra (FTIR) spectroscopy (Fig. 2). […] This indicates successful chemical conjugation of LWWNSYY onto the surface of PGMA-ECH NPs through the opening of epoxy group. UV-VIS spectra further confirmed formation of L-PGMA NPs (Fig. S1 in Supporting Information), with an absorption peak at 280 nm corresponding to the characteristic absorption of tryptophan residues in LWWNSYY. […] The formation of LWWNSYY clusters due to its high hydrophobicity was then expected to be inhibited.
UV-VIS spectra of L-PGMA NPs were obtained by Lambda 35 (Perkin Elmer, USA) UV-VIS spectrophotometer. Spectra were collected within a range of 200–600 nm. The nanoparticles without conjugated LWWNSYY were denoted as B-PGMA NPs. That is, the value of B-PGMA NPs with the same concentration was subtracted as background in analysis. Data were representative of three repeated experiments.

Chain of Triple Helical Collagen Peptide (GPO)2GFOGER(GPO)3 (as listed by the source): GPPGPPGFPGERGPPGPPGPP

Substance: LWWNSYY [L-PGMA NPs, LWWNSYY-PGMA nanoparticles conjugate; LWWNSYY immobilized to the surface of poly(glycidyl methacrylate) nanoparticles]
- Hydrodynamic diameter ([1]; DLS): 106.6 ± 0.91 nm
- Polydispersity index ([1]; DLS): 0.06 ± 0.02
- Zeta potential [1]: −32.9 ± 0.57 mV
- plateau of inhibition ratio curve, platelet adhesion ([2]; 1–50 μg/mL LWWNSYY, 0.1–40 μg/mL L-PGMA NPs (conjugated LWWNSYY)): 100%
- maximum inhibition ratio (IRmax) of platelet adhesion ([2]; Hill fit, 1–50 μg/mL LWWNSYY, 0.1–40 μg/mL L-PGMA NPs (conjugated LWWNSYY) in normal saline, 18 °C, mean ± S.D., N = 8): 102.6 ± 3.4%
- IC50, concentration required to inhibit half of the specific binding (platelet adhesion) ([2]; Hill fit, mean ± S.D., N = 8): 1.83 ± 0.29 µg/mL
- IC50 relative to that of free LWWNSYY ([2]; decreased to this fraction of free LWWNSYY IC50): 1/3
- clinical signs (ICR mice; 2.5mg/10ml/kg i.v., N = 4 (half males, half females), observed 7 days): no abnormal clinical signs
- toxicity (ICR mice): little toxicity
- Kd ([3]; 48 μM L-PGMA NPs in cell (concentration of conjugated LWWNSYY), single-site binding model): 3.45 ± 1.06 µM
- TΔS ([3]; 48 μM L-PGMA NPs in cell): 8.44 ± 0.37 kcal/mol
- ΔG ([3]; 48 μM L-PGMA NPs in cell): -7.09 ± 0.16 kcal/mol
- ΔH ([3]; 48 μM L-PGMA NPs in cell): 1.35 ± 0.21 kcal/mol
- thrombus weight ([4]; 15 min before 12% FeCl3, 30 min after injury, mean ± S.D., control 7.41 ± 1.75 mg, LWWNSYY p < 0.01, L-PGMA NPs p < 0.001 compared to control, no significant difference between the two): 3.70 ± 0.45 mg
- occlusion at 30 min ([4]; 15 min before 12% FeCl3): No occlusion was observed
- mean blood flow, relative to initial blood flow ([4]; 15 min before 12% FeCl3, at end of 30-min period, p < 0.001 compared to control or LWWNSYY group): about 85%
- reduction of thrombus weight compared to the control group ([4]; 30 min after injury): ~50%
- reduction of thrombus weight compared to LWWNSYY group ([4]; 30 min after injury, difference not significant): ~15%
- mean blood flow rate at all time points ([4]; compared to the control or LWWNSYY group): significantly higher
- immobilized LWWNSYY [5]: 3.2 ± 0.2 mg in 100 mg of PGMA NPs

Substance: LWWNSYY [LWWNSYY]
- IC50, concentration required to inhibit half of the specific binding (platelet adhesion) ([2]; Hill fit, mean ± S.D., N = 8): 5.66 ± 1.13 µg/mL
- toxicity (ICR mice): little toxicity
